Among the test systems are A498 renal; A549 NSCLC; HS 578T breast; KM12 colon; LOX IMVI melanoma; MDA-MB-435; NCI-H226 lung; SF-539 CNS; SW-620 colon; UO-31 renal.
Holding throughout (assay): NCI tumour cell line growth inhibition, 48 h

Several values for one entry are separate records, joined by “and”; a condition that tells them apart may be missing. Identical values can stand only once.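 Where inhibition never reached the appropriate level, the endpoint shown equals the highest concentration tested. Otherwise, values were interpolated linearly from a five-concentration, 48-hour dose response in 96-well plates. At the GI50, growth is halved. Definition used: TGI = concentration required for complete inhibition of growth.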

As for `CC(C)[C@](O)(c1ccc2cc(OC(F)F)c(OC(F)F)cc2c1)c1cn[nH]n1`, the GI50 in the experiment on A498 renal was 14.4 µM and 15.4 µM; in the experiment on A549 NSCLC it was 23.5 µM and 19.5 µM; with HS 578T breast it was 22.1 µM and 15.4 µM; in the experiment on KM12 colon it was 20.3 µM and 15.2 µM; in the experiment on LOX IMVI melanoma it was 15.7 µM and 14.8 µM; in the experiment with MDA-MB-435 it was 16 µM and 15.4 µM. For the same compound, the GI50 with NCI-H226 lung was 23.1 µM and 18.9 µM; with SF-539 CNS it was 16.5 µM and 16.2 µM; with SW-620 colon, 21 µM and 18.5 µM; in the experiment with UO-31 renal, 12.8 µM and 12.1 µM. The TGI was 28.2 µM and 29.2 µM in the experiment with A498 renal; 59.7 µM and 47.6 µM in the experiment on A549 NSCLC; 82.4 µM and 51.2 µM with HS 578T breast; 41.7 µM and 31.2 µM with KM12 colon; 29.1 µM and 28.9 µM with LOX IMVI melanoma; 32.6 µM and 33 µM in the experiment with MDA-MB-435. In addition, the TGI with NCI-H226 lung is 55.4 µM and 46.1 µM; with SF-539 CNS, 32.4 µM and 32.3 µM; in the experiment with SW-620 colon, 44.9 µM and 38.5 µM; in the experiment on UO-31 renal it was 29.1 µM and 30.1 µM.
With `COc1ccc2c(c1)C(=O)c1c-2n(CCCN)c(=O)c2ccccc12`, the GI50 was 0.836 µM in the experiment with A498 renal; less than 0.01 µM in the experiment on A549 NSCLC; 0.649 µM in the experiment with HS 578T breast; 0.0144 µM with KM12 colon; 0.0102 µM in the experiment on LOX IMVI melanoma; 0.146 µM with MDA-MB-435. Further, the GI50 with NCI-H226 lung is 0.0441 µM; in the experiment with SF-539 CNS, 0.0609 µM; in the experiment with SW-620 colon, less than 0.01 µM; in the experiment on UO-31 renal it was 0.0417 µM. The TGI was found to be 2.21 µM in the experiment with A498 renal; 0.0689 µM in the experiment on A549 NSCLC; 3.09 µM in the experiment with HS 578T breast; 0.0784 µM with KM12 colon; 0.0786 µM with LOX IMVI melanoma; 1.61 µM in the experiment on MDA-MB-435. Also, the TGI came to 0.122 µM in the experiment on NCI-H226 lung, 0.646 µM in the experiment with SF-539 CNS, 1.14 µM with SW-620 colon and 0.486 µM in the experiment on UO-31 renal.
In the case of `NS(=O)(=O)c1ccc(NC(=O)c2ccc(NC3=C(Cl)C(=O)N(Cc4ccccc4)C3=O)cc2)cc1`, the GI50 is 14.9 µM in the experiment with A498 renal; 29.1 µM with A549 NSCLC; 1.64 µM in the experiment on HS 578T breast; 48.7 µM in the experiment with KM12 colon; 3.35 µM in the experiment on LOX IMVI melanoma; 10.6 µM in the experiment on MDA-MB-435. Also, the GI50 in the experiment with NCI-H226 lung was 2.12 µM; in the experiment with SF-539 CNS, 4.59 µM; in the experiment on SW-620 colon it was 2.69 µM; with UO-31 renal it was 79.3 µM. Also, the TGI was 32.6 µM in the experiment with A498 renal; more than 100 µM with A549 NSCLC; 4.5 µM with HS 578T breast; more than 100 µM in the experiment with KM12 colon; 39 µM with LOX IMVI melanoma; 26.5 µM in the experiment on MDA-MB-435. The TGI in the experiment with NCI-H226 lung is 5.91 µM; in the experiment on SF-539 CNS, 22 µM; with SW-620 colon it was 7.78 µM; in the experiment with UO-31 renal it was more than 100 µM.
`COc1ccc(C#Cc2ccccc2C#CCCCCO)cc1`: the GI50 was 24.1 µM in the experiment with A498 renal; 18.2 µM in the experiment on A549 NSCLC; 28.3 µM with HS 578T breast; 17.7 µM in the experiment with KM12 colon; 16.9 µM in the experiment on LOX IMVI melanoma; 21.1 µM in the experiment with MDA-MB-435. Moreover, the GI50 in the experiment with NCI-H226 lung was 17.3 µM; in the experiment with SF-539 CNS, 22.6 µM; in the experiment on SW-620 colon, 17.8 µM; in the experiment with UO-31 renal it was 21.2 µM. Also, the TGI with A498 renal amounted to 66.4 µM; in the experiment with A549 NSCLC it was 33.7 µM; in the experiment on HS 578T breast it was 65.1 µM; in the experiment with KM12 colon it was 33.4 µM; with LOX IMVI melanoma, 30.6 µM; in the experiment with MDA-MB-435, 38.9 µM. Moreover, the TGI in the experiment with NCI-H226 lung worked out at 36.1 µM; in the experiment with SF-539 CNS, 42.8 µM; with SW-620 colon it was 34.8 µM; in the experiment on UO-31 renal it was 39.6 µM.
For the compound `Cc1nc2sccn2c1/C=C1/C(=O)Nc2ccccc21`, the GI50 with A498 renal is 1.68 µM; with A549 NSCLC, 7.65 µM; with HS 578T breast it was 19.4 µM; with KM12 colon, 0.349 µM; in the experiment with LOX IMVI melanoma, 8.42 µM; in the experiment on MDA-MB-435 it was 0.582 µM. Further, the GI50 in the experiment on NCI-H226 lung is 23.9 µM; in the experiment on SF-539 CNS, 3.14 µM; with SW-620 colon, 3.06 µM; in the experiment on UO-31 renal, 18.7 µM. Also, the TGI in the experiment on A498 renal was 9.72 µM; in the experiment on A549 NSCLC, more than 100 µM; with HS 578T breast, more than 78.1 µM; with KM12 colon, more than 100 µM; with LOX IMVI melanoma, more than 100 µM; with MDA-MB-435 it was 11 µM. In addition, the TGI in the experiment on NCI-H226 lung is more than 100 µM; in the experiment on SF-539 CNS, 17.8 µM; in the experiment with SW-620 colon it was more than 100 µM; with UO-31 renal it was more than 100 µM.
As for `C=C(Cn1c(=O)c2ccccc2c2ccccc21)c1ccc(C(=O)Nc2ccccc2N)cc1`, the GI50 in the experiment with A498 renal is 30.6 µM; in the experiment with A549 NSCLC, more than 48.3 µM; in the experiment with HS 578T breast it was 58.2 µM; in the experiment with KM12 colon, 25.6 µM; with LOX IMVI melanoma, 7.77 µM; in the experiment with MDA-MB-435, 24.2 µM. For the same compound, the GI50 in the experiment with NCI-H226 lung is 16.7 µM; in the experiment with SF-539 CNS, 21.9 µM; in the experiment with SW-620 colon it was 58.7 µM; in the experiment on UO-31 renal it was 2.28 µM. The TGI with A498 renal, in the experiment with A549 NSCLC, with HS 578T breast, in the experiment with KM12 colon, in the experiment with LOX IMVI melanoma and in the experiment on MDA-MB-435 was more than 100 µM throughout. Further, the TGI with NCI-H226 lung was more than 100 µM; in the experiment on SF-539 CNS it was more than 100 µM; with SW-620 colon, more than 100 µM; in the experiment on UO-31 renal, more than 63.2 µM.
On to `Cc1cc(C)nc(NC(N)=NCCc2ccccc2)n1`, for which the GI50 in the experiment on A498 renal was 5.26 µM; with A549 NSCLC, 3.03 µM; in the experiment with HS 578T breast, 4.41 µM; in the experiment with KM12 colon, 3.62 µM; with LOX IMVI melanoma it was 2.03 µM; with MDA-MB-435, 1.52 µM. In addition, the GI50 is 5.06 µM with NCI-H226 lung, 2.56 µM in the experiment on SF-539 CNS, 3.51 µM with SW-620 colon and 5.54 µM with UO-31 renal. Also, the TGI is 39 µM with A498 renal; 89 µM with A549 NSCLC; 54.9 µM with HS 578T breast; more than 100 µM with KM12 colon; 44.3 µM in the experiment with LOX IMVI melanoma; 4.49 µM in the experiment with MDA-MB-435. For the same compound, the TGI was more than 100 µM in the experiment with NCI-H226 lung, 26.2 µM in the experiment with SF-539 CNS, more than 100 µM in the experiment with SW-620 colon and 50.8 µM in the experiment with UO-31 renal.
